{"source": "paper PMC9578396", "about": "“Intrinsic Antibacterial Activity of Xeruborbactam In Vitro: Assessing Spectrum and Mode of Action” (Antimicrobial Agents and Chemotherapy, 2022)", "assay_type_in_all_cases": "cell-based", "key": {"Acinetobacter baumannii": {"test_system": "Acinetobacter baumannii", "assay": "Broth microdilution MIC (CLSI), Acinetobacter baumannii", "settings": "Acinetobacter baumannii", "method_in_brief": "(§1)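 MICs by CLSI broth microdilution in in-house panels. Strains tested were engineered strains carrying porin and efflux mutation combinations, KPC-producing clinical isolates and derivatives cured of KPC plasmids, and KPC-producing clinical isolates enriched for porin mutations.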"}, "Streptococcus pneumoniae": {"test_system": "Streptococcus pneumoniae", "assay": "MIC, Streptococcus pneumoniae", "description": "Bacterial isolates were subjected to broth microdilution susceptibility testing, performed according to Clinical and Laboratory Standards Institute (CLSI) methods ([46]), using panels prepared in-house. Meropenem was purchased from Sandoz, and all other antibiotics were from Sigma-Aldrich. Xeruborbactam was synthesized at Qpex Biopharma, San Diego, CA. Avibactam was purchased from eNovation Chemicals LLC, Bridgewater, NJ, USA; zidebactam was from MedKoo Biosciences, Inc., Morrisville, NC, and nacubactam was from Advanced ChemBlocks, Hayward, CA. Durlobactam was synthesized at Acme Bioscience, Palo Alto, CA, USA."}, "Klebsiella pneumoniae": {"test_system": "Klebsiella pneumoniae", "assay": "microbe, parasite or virus in culture", "settings": "for MIC: Klebsiella pneumoniae", "method_in_brief": "as §1"}}, "note": "Where “and” joins values, the source holds several entries; their conditions need not be identical. Equal values may be shown once. Read-outs that look alike come from different tables or passages of the source."}
{"smiles": "C[C@@H](O)[C@H]1C(=O)N2C(C(=O)O)=C(S[C@@H]3CN[C@H](C(=O)N(C)C)C3)[C@H](C)[C@H]12", "note": "[Meropenem]", "values": [{"measurement": "MIC", "setting": "Acinetobacter baumannii; ATCC17978", "result": "0.25 µg/mL and 0.66 µM"}, {"measurement": "MIC", "setting": "Acinetobacter baumannii; strain ACM1013, ΔadeIJK", "result": 0.125, "unit": "µg/mL"}, {"measurement": "MIC", "setting": "Acinetobacter baumannii; strain ACM1014, ΔadeABC", "result": 0.125, "unit": "µg/mL"}, {"measurement": "MIC", "setting": "Acinetobacter baumannii; strain ACM1015, ΔadeIJK ΔadeABC", "result": 0.06, "unit": "µg/mL"}, {"measurement": "MIC", "setting": "Acinetobacter baumannii; strain ACM1027, adeN (AdeIJK overexpression)", "result": 1, "unit": "µg/mL"}, {"measurement": "MIC", "setting": "Acinetobacter baumannii; strain ACM1030, adeS (AdeABC overexpression)", "result": 0.5, "unit": "µg/mL"}, {"measurement": "MIC", "setting": "Streptococcus pneumoniae; Streptococcus pneumoniae", "result": 0.125, "unit": "µg/mL"}, {"measurement": "MIC", "setting": "Streptococcus pneumoniae; Streptococcus pneumoniae, sp001, read-out: MIC", "result": "≤ 0.03", "unit": "µg/mL"}, {"measurement": "MIC", "setting": "Streptococcus pneumoniae; Streptococcus pneumoniae, sp002, read-out: MIC", "result": "≤ 0.03", "unit": "µg/mL"}, {"measurement": "MIC", "setting": "Streptococcus pneumoniae; Streptococcus pneumoniae, sp003, read-out: MIC", "result": "≤ 0.03", "unit": "µg/mL"}, {"measurement": "MIC", "setting": "Streptococcus pneumoniae; Streptococcus pneumoniae, sp004, read-out: MIC", "result": 0.25, "unit": "µg/mL"}, {"measurement": "MIC", "setting": "Streptococcus pneumoniae; Streptococcus pneumoniae, sp005, read-out: MIC", "result": 0.06, "unit": "µg/mL"}, {"measurement": "MIC", "setting": "Streptococcus pneumoniae; Streptococcus pneumoniae, sp006, read-out: MIC", "result": 0.25, "unit": "µg/mL"}, {"measurement": "MIC", "setting": "Streptococcus pneumoniae; Streptococcus pneumoniae, sp009, read-out: MIC", "result": 0.25, "unit": "µg/mL"}, {"measurement": "MIC", "setting": "Streptococcus pneumoniae; Streptococcus pneumoniae, sp117, read-out: MIC", "result": 0.25, "unit": "µg/mL"}, {"measurement": "MIC", "setting": "Streptococcus pneumoniae; Streptococcus pneumoniae, sp118, read-out: MIC", "result": 0.25, "unit": "µg/mL"}, {"measurement": "MIC", "setting": "Streptococcus pneumoniae; Streptococcus pneumoniae, sp119, read-out: MIC", "result": 0.25, "unit": "µg/mL"}, {"measurement": "MIC", "setting": "Streptococcus pneumoniae; Streptococcus pneumoniae, sp120, read-out: MIC", "result": 0.25, "unit": "µg/mL"}, {"measurement": "MIC", "setting": "Streptococcus pneumoniae; Streptococcus pneumoniae, sp122, read-out: MIC", "result": 4, "unit": "µg/mL"}, {"measurement": "MIC", "setting": "Streptococcus pneumoniae; Streptococcus pneumoniae, sp123, read-out: MIC", "result": 0.25, "unit": "µg/mL"}, {"measurement": "MIC", "setting": "Streptococcus pneumoniae; Streptococcus pneumoniae, sp125, read-out: MIC", "result": 0.25, "unit": "µg/mL"}, {"measurement": "MIC", "setting": "Streptococcus pneumoniae; Streptococcus pneumoniae, sp126, read-out: MIC", "result": 0.25, "unit": "µg/mL"}, {"measurement": "MIC", "setting": "Streptococcus pneumoniae; sp008", "result": 0.125, "unit": "µg/mL"}, {"measurement": "MIC", "setting": "Streptococcus pneumoniae; sp121", "result": 0.125, "unit": "µg/mL"}, {"measurement": "MIC90", "setting": "Klebsiella pneumoniae", "result": "≤0.06", "unit": "µg/mL"}, {"measurement": "MIC", "setting": "Klebsiella pneumoniae; ATCC49816", "result": "0.03 µg/mL and 0.08 µM"}, {"measurement": "MIC", "setting": "Klebsiella pneumoniae; KPM2601 (KPC-3; ΔompK35), alone", "result": 32, "unit": "µg/mL"}, {"measurement": "MIC", "setting": "Klebsiella pneumoniae; KPM2631 (KPC-3; ompK36_fs ΔompK35), alone", "result": 256, "unit": "µg/mL"}, {"measurement": "MIC", "setting": "Klebsiella pneumoniae; KPM3532 (TolQ::M189K), alone", "result": 0.06, "unit": "µg/mL"}, {"measurement": "MIC", "setting": "Klebsiella pneumoniae; KPM3532, TolQ::M189K", "result": 0.06, "unit": "µg/mL"}, {"measurement": "MIC", "setting": "Klebsiella pneumoniae; KPM3534 (TolQ::S31F), alone", "result": 0.06, "unit": "µg/mL"}, {"measurement": "MIC", "setting": "Klebsiella pneumoniae; KPM3534, TolQ::S31F", "result": 0.06, "unit": "µg/mL"}, {"measurement": "MIC", "setting": "Klebsiella pneumoniae; KPM4127 (KPM3532 TolQ::M189K/KPC-3), alone", "result": 32, "unit": "µg/mL"}, {"measurement": "MIC", "setting": "Klebsiella pneumoniae; KPM4128 (KPM3534 TolQ::S31F/KPC-3), alone", "result": 32, "unit": "µg/mL"}, {"measurement": "MIC", "setting": "Klebsiella pneumoniae; KPM4129 (KPM3532 TolQ::M189K/NDM-1), alone", "result": "> 64", "unit": "µg/mL"}, {"measurement": "MIC", "setting": "Klebsiella pneumoniae; KPM4130 (KPM3534 TolQ::S31F/NDM-1), alone", "result": "> 64", "unit": "µg/mL"}, {"measurement": "MIC", "setting": "Klebsiella pneumoniae; KPM4235, TolQ::IP(183–1844)PR", "result": 0.06, "unit": "µg/mL"}, {"measurement": "MIC", "setting": "Klebsiella pneumoniae; KPM4236, TolQ::TAA at aa 103", "result": 0.06, "unit": "µg/mL"}, {"measurement": "MIC", "setting": "Klebsiella pneumoniae; KPM4238, TolQ::S25F", "result": 0.06, "unit": "µg/mL"}, {"measurement": "MIC", "setting": "Klebsiella pneumoniae; KPM4239, TolQ::S28F", "result": 0.06, "unit": "µg/mL"}, {"measurement": "MIC", "setting": "Klebsiella pneumoniae; KPM4240, TolQ::S25Y", "result": 0.06, "unit": "µg/mL"}, {"measurement": "MIC", "setting": "Klebsiella pneumoniae; no-plasmid strain KPM1026a", "result": 0.03, "unit": "µg/mL"}, {"measurement": "MIC", "setting": "Klebsiella pneumoniae; no-plasmid strain KPM1027", "result": 0.06, "unit": "µg/mL"}, {"measurement": "MIC", "setting": "Klebsiella pneumoniae; no-plasmid strain KPM1171", "result": 2, "unit": "µg/mL"}, {"measurement": "MIC", "setting": "Klebsiella pneumoniae; no-plasmid strain KPM2040", "result": 0.125, "unit": "µg/mL"}, {"measurement": "MIC", "setting": "Klebsiella pneumoniae; no-plasmid strain KPM2600", "result": 0.06, "unit": "µg/mL"}, {"measurement": "MIC", "setting": "Klebsiella pneumoniae; no-plasmid strain KPM2613", "result": 0.25, "unit": "µg/mL"}, {"measurement": "MIC", "setting": "Klebsiella pneumoniae; strain KPM2600, ΔompK35", "result": 0.06, "unit": "µg/mL"}, {"measurement": "MIC", "setting": "Klebsiella pneumoniae; strain KPM2613, ΔompK35 ompK36_2040", "result": 0.25, "unit": "µg/mL"}, {"measurement": "MIC", "setting": "Klebsiella pneumoniae; strain KPM2696, ΔacrB", "result": 0.03, "unit": "µg/mL"}]}
